# Reference: ChEMBL document CHEMBL1201862, “PubChem BioAssay data set” (2004)
#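 Protocol summary: plate cells (96-well), add compound at 5 concentrations, incubate 48 h, interpolate endpoints linearly. GI50 marks 50% less growth.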 Active and inactive are the calls of the source. Rule as the data show it: active = GI50 up to about 1.1 µM and inactive = higher.
# Tests used:
# Assay in all cases: inhibition of tumour cell growth, NCI panel, 48 h
# 786-0 = test system: 786-0
# A498 = test system: A498
# A549 = test system: A549
# ACHN = test system: ACHN
# BT-549 = test system: BT-549
# CAKI-1 = test system: CAKI-1
# CCRF-CEM = test system: CCRF-CEM
# COLO 205 = test system: COLO 205
# DLD-1 = test system: DLD-1
# DMS-114 = test system: DMS-114
# DMS-273 = test system: DMS-273
# DU-145 = test system: DU-145
# EKVX = test system: EKVX
# HCC 2998 = test system: HCC 2998
# HCT-116 = test system: HCT-116
# HCT-15 = test system: HCT-15
# HL-60 = test system: HL-60
# HOP-18 = test system: HOP-18
# HOP-62 = test system: HOP-62
# HOP-92 = test system: HOP-92
# HT-29 = test system: HT-29
# IGROV-1 = test system: IGROV-1
# K562 = test system: K562
# KM-20L2 = test system: KM-20L2
# KM12 = test system: KM12
# LOX IMVI = test system: LOX IMVI
# LXFL 529 = test system: LXFL 529
# M14 = test system: M14
# M19-MEL = test system: M19-MEL
# MCF7 = test system: MCF7
# MDA-MB-231 = test system: MDA-MB-231
# MDA-MB-435 = test system: MDA-MB-435
# MDA-N = test system: MDA-N
# MOLT-4 = test system: MOLT-4
# Malme-3M = test system: Malme-3M
# NCI-H226 = test system: NCI-H226
# NCI-H23 = test system: NCI-H23
# NCI-H460 = test system: NCI-H460
# NCI-H522 = test system: NCI-H522
# NCI/ADR-RES = test system: NCI/ADR-RES
# OVCAR-3 = test system: OVCAR-3
# OVCAR-4 = test system: OVCAR-4
# OVCAR-5 = test system: OVCAR-5
# OVCAR-8 = test system: OVCAR-8
# PC-3 = test system: PC-3
# RPMI-8226 = test system: RPMI-8226
# RXF 393 = test system: RXF 393
# RXF 631 = test system: RXF 631
# SF-268 = test system: SF-268
# SF-295 = test system: SF-295
# SF-539 = test system: SF-539
# SK-MEL-28 = test system: SK-MEL-28
# SK-MEL-2 = test system: SK-MEL-2
# SK-MEL-5 = test system: SK-MEL-5
# SK-OV-3 = test system: SK-OV-3
# SN12C = test system: SN12C
# SNB-19 = test system: SNB-19
# SNB-75 = test system: SNB-75
# SNB-78 = test system: SNB-78
# SR = test system: SR
# SW-620 = test system: SW-620
# T47D = test system: T47D
# TK-10 = test system: TK-10
# U-251 = test system: U-251
# UACC-257 = test system: UACC-257
# UACC-62 = test system: UACC-62
# UO-31 = test system: UO-31
# XF498 = test system: XF498
smiles,measurement,setting,value
Nc1nccc2c1ncn2C1C=C(CO)C(O)C1O (stereo not given),GI50,786-0,60.1 µM (inactive)
same,GI50,A498,> 100 µM (inactive)
same,GI50,A549,98.4 µM (inactive)
same,GI50,ACHN,20.6 µM (inactive)
same,GI50,BT-549,83.2 µM (inactive)
same,GI50,CAKI-1,21.1 µM (inactive)
same,GI50,CCRF-CEM,2.76 µM (inactive)
same,GI50,COLO 205,19.7 µM (inactive)
same,GI50,DLD-1,63.4 µM (inactive)
same,GI50,DMS-114,13.9 µM (inactive)
same,GI50,DMS-273,25.6 µM (inactive)
same,GI50,DU-145,> 100 µM (inactive)
same,GI50,EKVX,> 94.6 µM (inactive)
same,GI50,HCC 2998,48.2 µM (inactive)
same,GI50,HCT-116,1.28 µM (inactive)
same,GI50,HCT-15,13.2 µM
same,GI50,HL-60,1.82 µM (inactive)
same,GI50,HOP-18,> 96.6 µM (inactive)
same,GI50,HOP-62,30.3 µM (inactive)
same,GI50,HOP-92,70.1 µM (inactive)
same,GI50,HT-29,6.37 µM (inactive)
same,GI50,IGROV-1,> 95.5 µM (inactive)
same,GI50,K562,1.86 µM (inactive)
same,GI50,KM-20L2,> 87.1 µM (inactive)
same,GI50,KM12,1.6 µM (inactive)
same,GI50,LOX IMVI,27.5 µM (inactive)
same,GI50,LXFL 529,> 89.1 µM (inactive)
same,GI50,M14,70 µM (inactive)
same,GI50,M19-MEL,62.5 µM (inactive)
same,GI50,MCF7,4.29 µM (inactive)
same,GI50,MDA-MB-231,> 100 µM (inactive)
same,GI50,MDA-MB-435,> 100 µM (inactive)
same,GI50,MDA-N,2.99 µM (inactive)
same,GI50,MOLT-4,2.55 µM (inactive)
same,GI50,Malme-3M,43.6 µM (inactive)
same,GI50,NCI-H226,49.1 µM (inactive)
same,GI50,NCI-H23,68.7 µM (inactive)
same,GI50,NCI-H460,1.41 µM (inactive)
same,GI50,NCI-H522,> 100 µM (inactive)
same,GI50,NCI/ADR-RES,7.05 µM (inactive)
same,GI50,OVCAR-3,> 94.4 µM (inactive)
same,GI50,OVCAR-4,59.4 µM (inactive)
same,GI50,OVCAR-5,23.4 µM (inactive)
same,GI50,OVCAR-8,41.8 µM (inactive)
same,GI50,PC-3,> 100 µM (inactive)
same,GI50,RPMI-8226,6.31 µM (inactive)
same,GI50,RXF 393,87.9 µM (inactive)
same,GI50,RXF 631,83.6 µM (inactive)
same,GI50,SF-268,> 96.4 µM (inactive)
same,GI50,SF-295,> 100 µM (inactive)
same,GI50,SF-539,11.8 µM (inactive)
same,GI50,SK-MEL-28,2.73 µM (inactive)
same,GI50,SK-MEL-2,91.6 µM (inactive)
same,GI50,SK-MEL-5,356 µM (inactive)
same,GI50,SK-OV-3,> 100 µM (inactive)
same,GI50,SN12C,74.3 µM (inactive)
same,GI50,SNB-19,62.7 µM (inactive)
same,GI50,SNB-75,62.1 µM (inactive)
same,GI50,SNB-78,> 100 µM (inactive)
same,GI50,SR,3.29 µM (inactive)
same,GI50,SW-620,1.75 µM (inactive)
same,GI50,T47D,> 100 µM (inactive)
same,GI50,TK-10,> 95.5 µM (inactive)
same,GI50,U-251,51.8 µM (inactive)
same,GI50,UACC-257,18.4 µM (inactive)
same,GI50,UACC-62,11.5 µM (inactive)
same,GI50,UO-31,3.39 µM (inactive)
same,GI50,XF498,> 46 µM (inactive)
C/C=C/C[C@@H](C)[C@@H](O)[C@H]1C(=O)N[C@@H](CC)C(=O)N(C)CC(=O)N(C)[C@@H](CC(C)C)C(=O)N[C@@H](C(C)C)C(=O)N(C)[C@@H](CC(C)C)C(=O)N[C@@H](C)C(=O)N[C@H](C)C(=O)N(C)[C@@H](CC(C)C)C(=O)N(C)[C@@H](CC(C)C)C(=O)N(C)[C@@H](C(C)C)C(=O)N1C [CYCLOSPORINE],GI50,786-0,12.8 µM (inactive)
same,GI50,A498,4.95 µM (inactive)
same,GI50,A549,5.25 µM (inactive)
same,GI50,ACHN,5.5 µM (inactive)
same,GI50,CAKI-1,6.98 µM (inactive)
same,GI50,CCRF-CEM,3.08 µM (inactive)
same,GI50,COLO 205,1.77 µM (inactive)
same,GI50,DLD-1,5.32 µM (inactive)
same,GI50,DMS-114,3.7 µM (inactive)
same,GI50,DMS-273,4.7 µM (inactive)
same,GI50,EKVX,10.4 µM (inactive)
same,GI50,HCC 2998,2.15 µM (inactive)
same,GI50,HCT-15,4.48 µM
same,GI50,HL-60,2.25 µM (inactive)
same,GI50,HOP-18,11.1 µM (inactive)
same,GI50,HOP-62,3.91 µM (inactive)
same,GI50,HOP-92,4.65 µM (inactive)
same,GI50,HT-29,2.29 µM (inactive)
same,GI50,IGROV-1,5.24 µM (inactive)
same,GI50,K562,3.99 µM (inactive)
same,GI50,KM-20L2,2.97 µM (inactive)
same,GI50,KM12,5.94 µM (inactive)
same,GI50,LOX IMVI,2.43 µM (inactive)
same,GI50,LXFL 529,6.89 µM (inactive)
same,GI50,M14,2.61 µM (inactive)
same,GI50,M19-MEL,2.37 µM (inactive)
same,GI50,MOLT-4,2.98 µM (inactive)
same,GI50,Malme-3M,7.45 µM (inactive)
same,GI50,NCI-H226,4.39 µM (inactive)
same,GI50,NCI-H23,5.37 µM (inactive)
same,GI50,NCI-H460,3.87 µM (inactive)
same,GI50,NCI-H522,5.48 µM (inactive)
same,GI50,OVCAR-3,3.8 µM (inactive)
same,GI50,OVCAR-4,4.18 µM (inactive)
same,GI50,OVCAR-5,6.93 µM (inactive)
same,GI50,OVCAR-8,12.2 µM (inactive)
same,GI50,RPMI-8226,2.48 µM (inactive)
same,GI50,RXF 393,7.45 µM (inactive)
same,GI50,RXF 631,1.98 µM (inactive)
same,GI50,SF-268,7.26 µM (inactive)
same,GI50,SF-295,2.79 µM (inactive)
same,GI50,SF-539,4.3 µM (inactive)
same,GI50,SK-MEL-28,5.68 µM (inactive)
same,GI50,SK-MEL-2,3.17 µM (inactive)
same,GI50,SK-MEL-5,3.78 µM (inactive)
same,GI50,SN12C,3.95 µM (inactive)
same,GI50,SNB-19,10.5 µM (inactive)
same,GI50,SNB-75,7.21 µM (inactive)
same,GI50,SNB-78,4.98 µM (inactive)
same,GI50,SR,1.47 µM (inactive)
same,GI50,SW-620,11.2 µM (inactive)
same,GI50,TK-10,7.82 µM (inactive)
same,GI50,U-251,7.66 µM (inactive)
same,GI50,UACC-257,2.05 µM (inactive)
same,GI50,UACC-62,3.85 µM (inactive)
same,GI50,UO-31,3.26 µM (inactive)
same,GI50,XF498,3.96 µM (inactive)
